Measured values taken from PMC3386930, “Altering APP Proteolysis: Increasing sAPPalpha Production by Targeting Dimerization of the APP Ectodomain” (PLoS ONE, 2012).

Legend:
APP = conditions: cited from earlier work
Text: These changes in conformation may be important in setting the balance between α-cleavage and β-cleavage of APP because the relative rates of these cleavages are known to be affected by interactions between APP and a number of proteins, both at the cell surface and during recycling of APP [19], [20]. Altering the balance of these two cleavages to favor α-cleavage is of potential therapeutic benefit for Alzheimer's disease since it would reduce Aβ production and enhance sAPPα production, without inhibition of the beta and gamma secretases. A precedent exists for this effect in that an increa ...

[1] = Size-exclusion chromatography of Aβ fragments; assay type: physicochemical; conditions: Superdex 75 column, PBS, indicates smaller dimers or monomers
Text: The arrow indicates the direction of shift of the fluorescence peak. […] The black line indicates the starting concentration and the blue line indicates the final concentration. The arrow indicates the direction of shift of the fluorescence peak.

eAPP230–624 [2] = biological target: T1, eAPP230–624 (Homo sapiens, UniProt P05067); assay: Small-angle X-ray scattering (SAXS) of eAPP230–624 complexes; assay type: binding; conditions: for MWcalc/MWseq: SAXS relative mass, MWseq 45-kDa for eAPP230–624, max. error ±0.2, monomer around 1.3, protein alone 2.0; for Dmax / Rg: SAXS, GNOM, eAPP230–624 with peptide; for Dmax: maximum dimension, max. estimated error ±10 Å; for Rg: radius of gyration, max. estimated error ±2 Å
T1 construct: made in house
T1 sequence (P05067 230-624 isoform P05067-4): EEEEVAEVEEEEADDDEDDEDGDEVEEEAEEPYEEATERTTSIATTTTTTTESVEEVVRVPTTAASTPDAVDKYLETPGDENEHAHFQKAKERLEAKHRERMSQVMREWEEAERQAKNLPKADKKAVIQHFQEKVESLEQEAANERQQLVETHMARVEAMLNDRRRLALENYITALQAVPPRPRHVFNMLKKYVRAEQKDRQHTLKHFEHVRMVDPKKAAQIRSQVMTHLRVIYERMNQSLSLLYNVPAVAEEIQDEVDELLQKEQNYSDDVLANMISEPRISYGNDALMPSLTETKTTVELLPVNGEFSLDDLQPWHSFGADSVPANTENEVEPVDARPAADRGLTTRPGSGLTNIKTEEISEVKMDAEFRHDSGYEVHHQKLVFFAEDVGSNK
Procedure: The samples were incubated on ice for 20 minutes and then concentrated to 50 µl with 10-kDa cutoff concentrators (Millipore). […] Samples of the filtrates were used for buffer subtraction.
The samples were then concentrated and purified with a Superdex S200 size-exclusion column with 20 mM Tris pH 7.4, 100 mM sodium chloride and 2 mM EDTA. Samples of the protein buffer from the size-exclusion columns were used for buffer subtraction.
Data collection and processing
Small-angle X-ray scattering data were collected using protein concentrations in the range of 0.5–3 mg/ml and an X-ray wavelength of 1.11 Å at beam line 12.3.1 (Advanced Light Source). Data were integrated with software customized for the beam line and processed with the program PRIMUS [30]. The program GNOM [31] was used to calculate the maximum dimension and the radius of gyration and to estimate the intensity of the scattering at zero angle for higher concentration samples.

eAPP230–624 [3] = biological target: T1, eAPP230–624; assay: Intrinsic tryptophan fluorescence of eAPP230–624; assay type: binding
Procedure: The excitation spectra of the intrinsic tryptophan fluorescence were recorded using either a Shimadzu RF-530PC (Shimadzu Scientific Instruments) or a Spectramax XPS spectrophotometer (Molecular Devices).
Full emission spectra were measured with the Shimadzu RF-530PC using a 3 ml quartz cuvette, a 5 nm slit width and protein concentrations between 0.2–0.6 µM. […] For these larger dilutions, control titrations with the protein alone were used to generate a scaling matrix where the scale factor was both a function of wavelength and dilution. […] A similar scaling matrix was used to correct for the effect of dilution with DMSO. […] All titrations were performed at 24°C. The oligomers were stored on ice during the experiment.
These concentrations are analogous to concentrations used to create complexes for the small angle x-ray scattering analysis. The incubated material was diluted with PBS so that the final protein concentration was 0.5 µM. The spectra were recorded with the Shimadzu […].
For experiments with the Spectromax XPS plate reader, an excitation wavelength of 295 nm was used. This excitation wavelength was chosen to minimize both the contribution of tyrosine in the protein and the background fluorescence of the 96-well plates (Costar #3915).
For the quenching experiments, the data were analyzed by constructing Stern-Volmer plots, F0/F vs. Q, where Fo is the intensity of the fluorescence at zero concentration, F is the intensity of the fluorescence, and Q is the concentration of the quenching agent. When quenching is through either a static (binding) or dynamic (collisional) mechanism this plot is linear and follows the equation: [drawing 1] (1) where Ksv is the quenching constant. When both processes are present the Stern-Volmer plot is quadratic: [drawing 2] (2) where KD is the equilibrium constant associated with dynamic quenching and Ks is the equilibrium constant associated with static quenching. All parameters were determined using PRISM (GraphPad) and the appropriate non-linear curve fitting routine.
The centroid wavelength (λc) was calculated as: [drawing 3] (3) where I(λi) is the intensity observed for the wavelength (λi). The range of wavelengths was 310–390 nm.

neuronal cells = conditions: similar activity; reference not printed with this sentence, 42 for APP319–335; cited from earlier work
Text: A 17-amino acid peptide (APP319–335) that contains the RERMS sequence is an example of such a compound. […] The mechanism by which the RERMS peptide enhances the producti ...

[4] = 0.64 µM eAPP230–624, RERMS 0–270 µM

Substance	inhibition of APP dimerization and cell survival (in words) (APP)	elution later than the 7-kDa peak [1] [mls]	MWcalc/MWseq (eAPP230–624 [2])	Dmax (eAPP230–624 [2]) [Å]	Rg (eAPP230–624 [2]) [Å]	inhibition of eAPP dimerization (in words) (eAPP230–624 [3]; legend of titration of 0.64 µM eAPP230–624 with 0–60 µM fragment)	pattern of changes in the intrinsic fluorescence (in words) (eAPP230–624 [3]; titration of 0.64 µM eAPP230–624, 345 nm)	SAXS form of eAPP230–624 complex (in words) (eAPP230–624 [2]; SAXS of complex)	fold reduced potency vs APP319–335 (neuronal cells)	red-shift in the centroid wavelength (eAPP230–624 [3]; [4]) [nm]	red-shift in the peak position (eAPP230–624 [3]; [4])	effect on intensity of intrinsic fluorescence (in words) (eAPP230–624 [3]; 0.64 µM eAPP230–624, RERMS 0–270 µM (1:0–1:420))
sAPPα: product of α-cleavage of APP; contains almost the entire ectodomain	inhibit APP dimerization and increase cell survival	–	–	–	–	–	–	–	–	–	–	–
Aβ1-28: Aβ fragment	–	0.5	0.9	170	46	inhibit eAPP dimerization	acted like Aβ1-40 dimers in terms of the changes in the intrinsic fluorescence	–	–	–	–	–
RERMS [The RERMS peptide itself (APP 328–332)]	–	–	1.8	130	39	–	–	dimer with a significantly smaller maximum dimension and radius of gyration than the native dimer	10 -fold	1	approximately 2 nm	quenches the intensity of the intrinsic fluorescence
